Measurements from publication PMC10797614, “MYC-Targeting Inhibitors Generated from a Stereodiversified Bicyclic Peptide Library” (Journal of the American Chemical Society, 2024).

Experiment: tandem ring-opening/ring-closing metathesis (ROM-RCM) of side-chain norbornene with two Glu allyl esters to bicyclic peptide; Hoveyda-Grubbs 2nd gen (M720), two portions (library procedure)
Conditions: the molecule shown is the open-chain precursor; 28-membered ring; 1,2-dichloroethane; resin; 70.0 °C
Work on C=CCOC(=O)CC[C@H](NC(=O)[C@H](CC(C)C)NC(=O)[C@H](C)NC(=O)[C@H](CCCCNC(=O)[C@@H]1C[C@H]2C=C[C@@H]1C2)NC(=O)[C@@H](NC(=O)[C@@H](NC(=O)[C@H](Cc1ccccc1)NC(=O)[C@H](CCC(=O)OCC=C)NC(=O)OCC1c2ccccc2-c2ccccc21)[C@@H](C)CC)C(C)C)C(N)=O yielded a ring closure, conversion by HPLC (% (semiquantitative, mass spectrometry)) of 18. Compound C=CCOC(=O)CC[C@H](NC(=O)[C@H](CC(C)C)NC(=O)[C@H](C)NC(=O)[C@H](CCCCNC(=O)[C@H]1C[C@H]2C=C[C@@H]1C2)NC(=O)[C@@H](NC(=O)[C@@H](NC(=O)[C@H](Cc1ccccc1)NC(=O)[C@H](CCC(=O)OCC=C)NC(=O)OCC1c2ccccc2-c2ccccc21)[C@@H](C)CC)C(C)C)C(N)=O has a ring closure, conversion by HPLC (% (semiquantitative, mass spectrometry)) of 65. C=CCOC(=O)CC[C@H](NC(=O)[C@@H]1CCCN1C(=O)[C@H](CC(C)C)NC(=O)[C@H](C)NC(=O)[C@H](CCCCNC(=O)[C@H]1C[C@H]2C=C[C@@H]1C2)NC(=O)[C@@H](NC(=O)[C@@H](NC(=O)[C@H](Cc1ccccc1)NC(=O)[C@H](CCC(=O)OCC=C)NC(=O)OCC1c2ccccc2-c2ccccc21)[C@@H](C)CC)C(C)C)C(N)=O gave a ring closure, conversion by HPLC (% (semiquantitative, mass spectrometry)) of 2. Compound C=CCOC(=O)CC[C@H](NC(=O)[C@H](CC(C)C)NC(=O)[C@H](C)NC(=O)[C@@H]1CCCN1C(=O)[C@H](CCCCNC(=O)[C@@H]1C[C@H]2C=C[C@@H]1C2)NC(=O)[C@@H](NC(=O)[C@@H](NC(=O)[C@H](Cc1ccccc1)NC(=O)[C@H](CCC(=O)OCC=C)NC(=O)OCC1c2ccccc2-c2ccccc21)[C@@H](C)CC)C(C)C)C(N)=O has a ring closure, conversion by HPLC (% (semiquantitative, mass spectrometry)) of 14. C=CCOC(=O)CC[C@H](NC(=O)[C@@H]1CCCN1C(=O)[C@H](CC(C)C)NC(=O)[C@H](C)NC(=O)[C@H](CCCCNC(=O)[C@@H]1C[C@H]2C=C[C@@H]1C2)NC(=O)[C@@H](NC(=O)[C@@H](NC(=O)[C@H](Cc1ccccc1)NC(=O)[C@H](CCC(=O)OCC=C)NC(=O)OCC1c2ccccc2-c2ccccc21)[C@@H](C)CC)C(C)C)C(N)=O showed a ring closure, conversion by HPLC (% (semiquantitative, mass spectrometry)) of 2. C=CCOC(=O)CC[C@H](NC(=O)[C@H](CC(C)C)NC(=O)[C@@H]1CCCN1C(=O)[C@H](C)NC(=O)[C@H](CCCCNC(=O)[C@@H]1C[C@H]2C=C[C@@H]1C2)NC(=O)[C@@H](NC(=O)[C@@H](NC(=O)[C@H](Cc1ccccc1)NC(=O)[C@H](CCC(=O)OCC=C)NC(=O)OCC1c2ccccc2-c2ccccc21)[C@@H](C)CC)C(C)C)C(N)=O showed a ring closure, conversion by HPLC (% (semiquantitative, mass spectrometry)) of 10. In the case of C=CCOC(=O)CC[C@H](NC(=O)[C@H](CC(C)C)NC(=O)[C@@H]1CCCN1C(=O)[C@H](C)NC(=O)[C@H](CCCCNC(=O)[C@H]1C[C@H]2C=C[C@@H]1C2)NC(=O)[C@@H](NC(=O)[C@@H](NC(=O)[C@H](Cc1ccccc1)NC(=O)[C@H](CCC(=O)OCC=C)NC(=O)OCC1c2ccccc2-c2ccccc21)[C@@H](C)CC)C(C)C)C(N)=O, the ring closure, conversion by HPLC (% (semiquantitative, mass spectrometry)) is reported as 45. In the case of C=CCOC(=O)CC[C@H](NC(=O)[C@H](CC(C)C)NC(=O)[C@H](C)NC(=O)[C@@H]1CCCN1C(=O)[C@H](CCCCNC(=O)[C@H]1C[C@H]2C=C[C@@H]1C2)NC(=O)[C@@H](NC(=O)[C@@H](NC(=O)[C@H](Cc1ccccc1)NC(=O)[C@H](CCC(=O)OCC=C)NC(=O)OCC1c2ccccc2-c2ccccc21)[C@@H](C)CC)C(C)C)C(N)=O, the ring closure, conversion by HPLC (% (semiquantitative, mass spectrometry)) is reported as 47.

Same assay, conditions: the molecule shown is the open-chain precursor; 31-membered ring; 1,2-dichloroethane; resin; 70.0 °C
C=CCOC(=O)CC[C@H](NC(=O)[C@H](CC(C)C)NC(=O)[C@H](C)NC(=O)[C@H](CCCCNC(=O)[C@H]1C[C@H]2C=C[C@@H]1C2)NC(=O)[C@@H](NC(=O)[C@@H](NC(=O)[C@@H]1CCCN1C(=O)[C@H](Cc1ccccc1)NC(=O)[C@H](CCC(=O)OCC=C)NC(=O)OCC1c2ccccc2-c2ccccc21)[C@@H](C)CC)C(C)C)C(N)=O showed a ring closure, conversion by HPLC (% (semiquantitative, mass spectrometry)) of 79. C=CCOC(=O)CC[C@H](NC(=O)[C@H](CC(C)C)NC(=O)[C@H](C)NC(=O)[C@H](CCCCNC(=O)[C@@H]1C[C@H]2C=C[C@@H]1C2)NC(=O)[C@@H]1CCCN1C(=O)[C@@H](NC(=O)[C@@H](NC(=O)[C@H](Cc1ccccc1)NC(=O)[C@H](CCC(=O)OCC=C)NC(=O)OCC1c2ccccc2-c2ccccc21)[C@@H](C)CC)C(C)C)C(N)=O gave a ring closure, conversion by HPLC (% (semiquantitative, mass spectrometry)) of 25. C=CCOC(=O)CC[C@H](NC(=O)[C@H](CC(C)C)NC(=O)[C@H](C)NC(=O)[C@H](CCCCNC(=O)[C@@H]1C[C@H]2C=C[C@@H]1C2)NC(=O)[C@@H](NC(=O)[C@@H](NC(=O)[C@H](Cc1ccccc1)NC(=O)[C@@H]1CCCN1C(=O)[C@H](CCC(=O)OCC=C)NC(=O)OCC1c2ccccc2-c2ccccc21)[C@@H](C)CC)C(C)C)C(N)=O showed a ring closure, conversion by HPLC (% (semiquantitative, mass spectrometry)) of 22. Compound C=CCOC(=O)CC[C@H](NC(=O)[C@H](CC(C)C)NC(=O)[C@H](C)NC(=O)[C@H](CCCCNC(=O)[C@H]1C[C@H]2C=C[C@@H]1C2)NC(=O)[C@@H](NC(=O)[C@@H]1CCCN1C(=O)[C@@H](NC(=O)[C@H](Cc1ccccc1)NC(=O)[C@H](CCC(=O)OCC=C)NC(=O)OCC1c2ccccc2-c2ccccc21)[C@@H](C)CC)C(C)C)C(N)=O has a ring closure, conversion by HPLC (% (semiquantitative, mass spectrometry)) of 80. In the case of C=CCOC(=O)CC[C@H](NC(=O)[C@H](CC(C)C)NC(=O)[C@H](C)NC(=O)[C@H](CCCCNC(=O)[C@H]1C[C@H]2C=C[C@@H]1C2)NC(=O)[C@@H]1CCCN1C(=O)[C@@H](NC(=O)[C@@H](NC(=O)[C@H](Cc1ccccc1)NC(=O)[C@H](CCC(=O)OCC=C)NC(=O)OCC1c2ccccc2-c2ccccc21)[C@@H](C)CC)C(C)C)C(N)=O, the ring closure, conversion by HPLC (% (semiquantitative, mass spectrometry)) is reported as 34. Work on C=CCOC(=O)CC[C@H](NC(=O)[C@H](CC(C)C)NC(=O)[C@H](C)NC(=O)[C@H](CCCCNC(=O)[C@@H]1C[C@H]2C=C[C@@H]1C2)NC(=O)[C@@H](NC(=O)[C@@H]1CCCN1C(=O)[C@@H](NC(=O)[C@H](Cc1ccccc1)NC(=O)[C@H](CCC(=O)OCC=C)NC(=O)OCC1c2ccccc2-c2ccccc21)[C@@H](C)CC)C(C)C)C(N)=O yielded a ring closure, conversion by HPLC (% (semiquantitative, mass spectrometry)) of 14. In the case of C=CCOC(=O)CC[C@H](NC(=O)[C@H](CC(C)C)NC(=O)[C@H](C)NC(=O)[C@H](CCCCNC(=O)[C@@H]1C[C@H]2C=C[C@@H]1C2)NC(=O)[C@@H](NC(=O)[C@@H](NC(=O)[C@@H]1CCCN1C(=O)[C@H](Cc1ccccc1)NC(=O)[C@H](CCC(=O)OCC=C)NC(=O)OCC1c2ccccc2-c2ccccc21)[C@@H](C)CC)C(C)C)C(N)=O, the ring closure, conversion by HPLC (% (semiquantitative, mass spectrometry)) is reported as 74. With C=CCOC(=O)CC[C@H](NC(=O)[C@H](CC(C)C)NC(=O)[C@H](C)NC(=O)[C@H](CCCCNC(=O)[C@H]1C[C@H]2C=C[C@@H]1C2)NC(=O)[C@@H](NC(=O)[C@@H](NC(=O)[C@H](Cc1ccccc1)NC(=O)[C@@H]1CCCN1C(=O)[C@H](CCC(=O)OCC=C)NC(=O)OCC1c2ccccc2-c2ccccc21)[C@@H](C)CC)C(C)C)C(N)=O the ring closure, conversion by HPLC (% (semiquantitative, mass spectrometry)) was 55.
